Measured values from US8207314B2, “Tumor antigens for prevention and/or treatment of cancer” (Sanofi Pasteur Limited, priority 2003, dated 2012).

Experiments:
[1] = test system: peptide-loaded human T2 lymphoma cell targets; experiment: CTL killing of BFA4 peptide-pulsed target cells; type: cell-based; conditions: single BFA4 peptides, listing = result
[2] = test system: Human PBMC from an HLA-A2.1 positive donor; experiment: IFN-γ ELISPOT of human T cells activated with BFY3 peptide pools and deconvolution to single peptides; type: cell-based; conditions: BFY3 nonamer peptides; listing = result
From the text: Human PBMC from an HLA-A2.1 positive donor designated AP31 were activated with autologous dendritic cells pulsed with different pools of 9-mer peptides from the BFY3 antigen (see Table I for list). The activated T cells were re-stimulated after 12 days with activated autologous CD40-ligand-activated B cells pulsed with the same respective peptide pools for another 8 to 10 days. This secondary activation was repeated 2 more time for a total of 4 stimulations. The activated T cells were isolated after the 4th stimulation and subjected to ELISPOT analysis for human IFN-γ production against their respective BFY3 peptide pools as shown. The blue bars show reactivity against the BFY3 peptide pools and the red bars are for an HLA-A2.1-binding HIV peptide as a negative control. Standard deviations are indicated. The experiment was repeated 2 times on activated T cells from different rounds of peptide stimulation with the similar results (FIG. 17A).
The BFY3 peptide pools were deconvoluted and studied in IFN-γ ELISPOT assays. Stimulation was performed as described earlier for the other antigens described. After 4 rounds of stimulation, the T cells from each culture were harvested and subjected to ELISPOT analysis for IFN-γ production with each individual peptide in each pool. FIG. 17B illustrates individual peptide reactivity for each specific pool.

[3] = test system: targets pulsed with corresponding peptide pools; experiment: CTL killing of targets pulsed with BFY3 peptide pools or peptides; type: cell-based, human; conditions: for Peptides eliciting CTL activity (peptide pulsed targets): BFY3 nonamer peptides, listing = result; for recognition of single peptides by CTL: BFY3 peptides, peptide-pulsed targets
Protocol: (§1) In addition to ELISPOT analysis, human T cells activated by BFY3 peptides were assayed for reactivity. Ten pools of peptides consisting often peptides per pool used to generate CTL. These 10 groups of effectors used to kill targets pulsed with corresponding peptide pools. […]

[4] = test system: HLA-A*0201 human T cells; experiment: IFN-γ ELISPOT of human T cells activated with BFA5/NYBR-1 peptide pools and single peptides; type: cell-based; conditions: for BFA5 peptides eliciting high IFN-γ release (>200 spots/100,000 cells): listing = result; for IFN-γ secretion in T cells from both donors: donors AP10 and AP31
Protocol: A library of 100 peptides from the BFA5/NYBR-1 coding sequence that are predicted to be medium to high binders to HLA-A*0201 were designed using Rammensee and Parker algorithms. The library was sub-divided into 10 pools of ten peptides (see Table XI), and each pool was used to activate 10 different T cell cultures after pulsing peptides on to mature autologous dendritic cells.
ELISPOT analysis was performed on human T-cell cultures activated through four rounds of stimulation with each pool of BFA5 peptides. In FIG. 13A, the numbers under the X-axis indicate the number of each peptide pool (1-10). Reactivity against a CMV pp65 peptide, and a Flu matrix peptide were used as positive controls for T-cell activation in the experiments. Each experiment was performed with PBMC and dendritic cells from a single HLA-A*0201^+ donor designated as “AP10”. […] Similar results were obtained for both BFA4 and BFA5/NYBR-1 with a different HLA-A*0201. […] Cultures having a reading of 600 spots have more than this number of spots.
A large number of the BFA5 peptide pools of are reactive as shown by the high levels of IFN-γ production (FIG. 13A). Each reactive peptide pool was then separated into individual peptides and analyzed for immunogenicity using ELISPOT analysis to isolate single reactive BFA5 peptides. […] Similar results were obtained in two independent PBMC culture experiments.

[5] = test system: peptide-loaded T2 cells; experiment: 51Cr-release CTL assay with BFA5 peptide-activated human T cells; type: cell-based; conditions: for BFA5 peptides inducing CTL lysis of pulsed cells: Donor AP10, listing = result; for CTL activity in T cells from both donors: donors AP10 and AP31
Protocol: In addition to ELISPOT analysis, human T cells activated by BFA5 peptides were assayed to determine their ability to function as CTL. The cells were activated using peptide-pulsed dendritic cells followed by CD40 ligand-activated B cells (5 rounds of stimulation). The experiment shown was performed with isolated PBMC from HLA-A*0201^+ donor AP31. Isolated T cells were tested in ^51Cr-release assays using peptide-loaded T2 cells. The % specific lysis at a 10:1, 5:1, and 1:1 T-cell to target ratio is shown for T2 cells pulsed with either pools of BFA5/NYBR-1 peptides or with individual peptides. […] CTL activity (percent specific lysis) induced by the control HIV peptide was generally <10%. Similar results were obtained with another PBMC donor expressing HLA-A*0201 (AP10). […]

[6] = test system: BFA4; experiment: Rabbit antibody titers after immunization with BFA4 22-mer peptides; type: in vivo
From the text: For monitoring purposes, rabbit anti-BFA4 polyclonal antibodies were generated. Six peptides (22-mers) were designed and synthesized to elicit antibody response to BFA4, as shown below:
Rabbits were immunized with the peptides, serum was isolated, and the following antibody titers were observed: […]

[7] = test system: CosA2 cells transfected with BFY3; experiment: CTL killing of BFY3-transfected cells; type: cell-based; conditions: CTL generated from BFY3 peptide pools
Protocol: as §1

[8] = first-listed rabbit of the pair
[9] = second-listed rabbit of the pair

NACGLYQKL [CLP 2495]
Strong CTL Killing (listed as highly immunoreactive peptide) [1]: NACGLYQKL

KAANVTLLT [CLP 3378]
Peptides eliciting strong IFN-γ ELISPOT activity [2]: KAANVTLLT
Peptides eliciting CTL activity (peptide pulsed targets) [3]: KAANVTLLT
recognition of single peptides by CTL [3]: strongly recognized

SLPHAIEEV [CLP 3343]
Peptides eliciting strong IFN-γ ELISPOT activity [2]: SLPHAIEEV

YLLHENQML [CLP 2997]
BFA5 peptides eliciting high IFN-γ release (>200 spots/100,000 cells) ([4]; Donor AP10): YLLHENCML
BFA5 peptides eliciting high IFN-γ release (>200 spots/100,000 cells) ([4]; Donor AP31): YLLHENCML
BFA5 peptides inducing CTL lysis of pulsed cells [5]: YLLHENCML

ALRICDIEL [CLP 3043]
BFA5 peptides eliciting high IFN-γ release (>200 spots/100,000 cells) ([4]; Donor AP10): ALRIQDIEL

ATDGMKVSI [CLP 3054]
BFA5 peptides eliciting high IFN-γ release (>200 spots/100,000 cells) ([4]; Donor AP10): ATCGMKVSI
BFA5 peptides inducing CTL lysis of pulsed cells [5]: ATCGMKVSI

RLNPEALQA [CLP 2499]
Strong CTL Killing (listed as highly immunoreactive peptide) [1]: RLNPEALQA

SPKATEETGQAQSGQANCQGLS [CLP2590]
Titer (Bleed 2) [6, 8]: 12800
Titer (Final Bleed) [6, 8]: 40000, 40000
Titer (Bleed 2) [6, 9]: 6400
Titer (Final Bleed) [6, 9]: 40000, 40000

MLWKLTDNI [CLP 3320]
Peptides eliciting strong IFN-γ ELISPOT activity [2]: MLWKLTDNI
Peptides eliciting CTL activity (peptide pulsed targets) [3]: MLWKLTDNI
recognition of single peptides by CTL [3]: strongly recognized
killing of CosA2 cells transfected with BFY3 by CTL [7]: responsible for this cytotoxicity

NHLQGSDGQQSVKESKEHSCTK [CLP2592]
Titer (Bleed 2) [6, 8]: 25600
Titer (Final Bleed) [6, 8]: 80000
Titer (Bleed 2) [6, 9]: 12800
Titer (Final Bleed) [6, 9]: 40000

FTTPDVDVL [CLP 2468]
Strong CTL Killing (listed as highly immunoreactive peptide) [1]: FTTPDVDVL

VAKPSEKNSNKSIPALQSSDSG [CLP2591]
Titer (Bleed 2) [6, 8]: 400000, 400000
Titer (Final Bleed) [6, 8]: 320000, 320000
Titer (Bleed 2) [6, 9]: 400000, 400000
Titer (Final Bleed) [6, 9]: 320000, 320000

HLARDFGYV [CLP 3387]
Peptides eliciting strong IFN-γ ELISPOT activity [2]: HLARDFGYV
Peptides eliciting CTL activity (peptide pulsed targets) [3]: HLARDFGYV
recognition of single peptides by CTL [3]: strongly recognized

SCLTHFNLI [CLP 3403]
Peptides eliciting strong IFN-γ ELISPOT activity [2]: SCLTHFNLI

ANGASKEKTKAPPNVKNEGPLNV [CLP2594]
Titer (Bleed 2) [6, 8]: 409600, 409600
Titer (Final Bleed) [6, 8]: 320000, 320000
Titer (Bleed 2) [6, 9]: 409600, 409600
Titer (Final Bleed) [6, 9]: 320000, 320000

MLAFSFPAA [CLP 2427]
Strong CTL Killing (listed as highly immunoreactive peptide) [1]: MLAFSFPAA

LMDMQTFKA [CLP 2983]
IFN-γ secretion in T cells from both donors [4]: induce
CTL activity in T cells from both donors [5]: induce

SQYSGQLKV [CLP 3015]
IFN-γ secretion in T cells from both donors [4]: induce
CTL activity in T cells from both donors [5]: induce

NMLAFSFPA [CLP 2426]
Strong CTL Killing (listed as highly immunoreactive peptide) [1]: NMLAFSFPA

NGEQIIRRRTRKRLNPEALQAE [CLP2593]
Titer (Bleed 2) [6, 8]: 3200000
Titer (Final Bleed) [6, 8]: 2560000
Titer (Bleed 2) [6, 9]: 51200
Titer (Final Bleed) [6, 9]: 160000
